Data taken from publication PMC4335872, “Pharmacokinetic-Pharmacodynamic Analysis of Spiroindolone Analogs and KAE609 in a Murine Malaria Model” (Antimicrobial Agents and Chemotherapy, 2015).
Values after ≈ are worked out from the molar mass of the structure shown. Values joined by “and” are separate entries in the source; they are usually repeats but may differ in a detail not shown here. Identical values can stand only once. “Also recorded” adds a separate entry of the source. Like-named read-outs stand apart in the source and are kept apart here.

Assays:
P. falciparum NF54 = test: In vitro [3H]hypoxanthine incorporation assay, P. falciparum NF54; type: cell-based, Plasmodium falciparum; details: for IC50: 16 h + 8 h incubation, read-out: IC50 (mean ± SD) for P. falciparum NF54 (n = 3)
Procedure: Human erythrocytes served as the host cells. In vitro antimalarial activity was measured using the [^3H]hypoxanthine incorporation assay ([36]) with strain NF54 of P. falciparum (obtained from Hoffmann-LaRoche Ltd.). The compounds were dissolved in dimethyl sulfoxide (DMSO) at a concentration of 10 mM, diluted in hypoxanthine-free culture medium, and titrated in duplicate over a 64-fold range in 96-well plates. […] The parasites were harvested onto glass fiber filters, and radioactivity was measured using a BetaPlate liquid scintillation counter (Wallac, Zurich, Switzerland). All assays were repeated at least three times. The results were recorded and expressed as a percentage of the untreated controls. […] In addition, for the PK-PD analysis of KAE609, an IC99 value was determined by transforming the data from a scintillation counter (Anscombe transformation) to account for Poissonian measurement error. […] Each of the three replicates was performed on a distinct 96-well plate. This has been accounted for in the fitting procedure by means of a Bayesian hierarchical model. The software used for parameter inference was Stan ([37]).

[1] = tested on: P. berghei GFP ANKA PbGFPCON; test: In vitro (ex vivo) P. berghei maturation assay; type: cell-based, Plasmodium berghei
Procedure: For the in vitro (ex vivo) P. berghei maturation assays ([38]), heparinized blood from infected mice (P. berghei GFP ANKA malaria strain PbGFPCON, a donation from A. P. Waters and C. J. Janse, Leiden University, Leiden, the Netherlands) ([39]) was washed with 9 ml of hypoxanthine-free culture medium and diluted with hypoxanthine-free culture medium and red blood cells (RBCs) from uninfected mice to a hematocrit of 5% and a parasitemia of 0.3%. Serial compound dilutions were prepared in DMSO and distributed as described above. The infected erythrocytes (0.3% final parasitemia and 2.5% final hematocrit) were added into the wells. After the plates were incubated for 16 h, 0.25 μCi of [^3H]hypoxanthine was added per well, and the plates were incubated for an additional 8 h. The parasites were harvested, and the in vitro (ex vivo) P. berghei IC50, IC90, and IC99 values were determined as described above.

[2] = tested on: P. berghei GFP ANKA malaria strain PbGFPCON; test: Dose-response efficacy in the P. berghei malaria mouse model; type: in vivo, female NMRI mice; details: for Hill slope: dose vs parasitemia model; for Pmax (maximum parasitemia) / Pmin (minimum parasitemia): sigmoid dose-response model, single oral doses 24 h postinfection; for Pmax (maximum parasitemia) / Pmin (minimum parasitemia) / ED90 (effective dose causing a 90% reduction in parasitemia): parasitemia 72 h postinfection; for ED90 (effective dose causing a 90% reduction in parasitemia): single oral dose 24 h postinfection; for Efficacy in the P. berghei mouse model: single oral doses 2.5 to 100 mg/kg
Text: All in vivo studies conducted at the Swiss Tropical and Public Health Institute (TPH) adhered to local and national regulations of laboratory animal welfare in Switzerland (permission no. 1731). For in vivo efficacy, female (specific-pathogen-free) […] (NMRI) mice were obtained from Janvier, Le Genest-Saint-Isle, France. Only mice without visible signs of disease were used for the study. Standard laboratory conditions were adopted for husbandry. In vivo antimalarial activity was assessed using groups of five female NMRI mice (20 to 22 g) intravenously infected on day zero with 2 × 10^7 erythrocytes parasitized with P. berghei GFP ANKA malaria strain PbGFPCON (a donation from A. P. Waters and C. J. Janse, Leiden University) ([39]). Untreated control mice typically died between day six and day seven postinfection. Experimental compounds were formulated in 10% ethanol, 30% PEG 400, and 60% of 10% vitamin E TPGS and were administered orally in a volume of 10 ml/kg. Dose-response efficacy studies were conducted for each spiroindolone analog. Doses of 2.5, 5, 10, 30, and 100 mg/kg were administered to groups of 5 mice each as a single dose at 24 h postinfection. Parasitemia, expressed as parasitized red blood cells (pRBCs) of >100 RBCs, was determined 72 h postinfection using standard flow cytometry techniques ([39]).
Data analysis was done using nonlinear mixed-effect modeling (NONMEM version VI 2.0), which analyzed the PD data from multiple dose groups obtained simultaneously from different experiments. Within NONMEM, first-order conditional estimation (FOCE) was the method used ([40]). The log-transformed dose and level of parasitemia were used for analysis. For each compound, a dose-response model was built, and the ED90 (effective dose lowering 90% of parasitemia) values were determined using equation 1 ([41]), where P is the parasitemia measured at any given dose, Pmax is the maximum level of parasitemia, Pmin is the minimum level of parasitemia, EZ50 is the dose required to produce 50% of the maximal effect, s is the Hill slope describing the steepness of the curve, and x is the dose (in mg/kg). 1 P=Pmin +{[Pmax−Pmin]/[1+10^(logEZ50−log x)×s]}

[3] = HT-equilibrium solubility; type: physicochemical; details: pH 6.8, HT-equilibrium solubility
Text: page 5: Running title: PreclinicalPK -PD of antimalarials 73 to high through put form at using in- house standard assa y protocols that are described in the 74 literature. […] 81 82 83 84 85 86 87 88 89 90 91 92 93 94 95 96 97 98 5

Caco-2 cells = test: Caco-2 permeability; type: in vitro ADME; details: apical to basolateral
Text: (§1) page 5: Running title: PreclinicalPK -PD of antimalarials 73 to high through put form at using in- house standard assa y protocols that are described in the 74 literature. 75 (a)HT-Equilibrium solubilit y at pH 6.8( 1); (b)Parallel Artificial Membrane P ermeability Assa y 76 expressed in % fraction absorbed (FA) ( 2,3 ); (c)Apparent permeability from apical to […] 78 tested; (d)intrinsic clearance in mouse liver micro somes ex pressed as µ L/ min/mg protein, in 79 the presen ce of liver enzym es ( 6); (e)Mous e plasm a protein binding using rapid equilibrium […] 81 82 83 84 85 86 87 88 89 90 91 92 93 94 95 96 97 98 5

[4] = Mouse plasma protein binding, rapid equilibrium dialysis; type: in vitro ADME
Text: as §1

[5] = 16 h + 8 h incubation, read-out: IC50 (mean ± SD) for P. berghei GFP ANKA PbGFPCON (n = 3)

Row | Compound | IC50 (P. falciparum NF54) [nM] | IC50 [1, 5] [nM] | Hill slope [2] | Pmax (maximum parasitemia) [2] | Pmin (minimum parasitemia) [2] | ED90 (effective dose causing a 90% reduction in parasitemia) [2] [mg/kg] | Solubility [3] [µM] | Caco-2 Papp (A-B) (Caco-2 cells) | Mouse PPB [4] [%] | Threshold (TRE), 2 × P. falciparum IC99 (P. falciparum NF54) [ng/mL] | IC50 (P. falciparum NF54; Plasmodium falciparum, NF54) [nM] | Threshold (TRE), 2× the P. berghei IC99 [1] | IC50 ([1]; Plasmodium berghei, read-out: IC50 against P. berghei in vitro) [µg/mL] | IC50 ([1]; Plasmodium berghei, 16 h + 8 h incubation, read-out: IC50 (mean ± SD) for P. berghei GFP ANKA PbGFPCON (n = 3)) [nM] | IC99 in the ex vivo P. berghei maturation assay ([1]; four-parametric logistic fit, Bayesian hierarchical model) [nM] | Complete cure (>30 days survival) ([2]; data not shown) | Solubility ([3]; aqueous buffer, thermodynamic from solid) [µM] | In vitro activity against P. falciparum (P. falciparum NF54) | Efficacy in the P. berghei mouse model [2]
1 | C[C@H]1Cc2c([nH]c3ccc(Cl)cc23)[C@@]2(N1)C(=O)Nc1ccc(Cl)cc12 [(+)-2] | 5.6 ± 0.9 | 75 ± 32 | −3.36 | 30.90 | 0.03 | 17.4 | 22 (≈ 8.19 µg/mL) | – | – | – | – | – | – | – | – | – | – | – | –
2 | C[C@H]1Cc2c([nH]c3cc(Cl)ccc23)[C@@]2(N1)C(=O)Nc1ccc(Cl)cc12 [(+)-3] | 5.6 ± 0.7 | 140 ± 54 | −6.4 | 24.55 | 0.12 | 17.9 | 8 (≈ 2.98 µg/mL) | 41.7 10-6 cm/sec | 99.7 | – | – | – | – | – | – | – | – | – | –
3 | C[C@H]1Cc2c([nH]c3ccc(F)cc23)[C@@]2(N1)C(=O)Nc1ccc(Cl)cc12 [(+)-4] | 5.9 ± 0.9 | 104 ± 53 | −2.87 | 30.90 | 0.03 | 16.7 | 137 (≈ 48.7 µg/mL) | 7.66 10-6 cm/sec | 98.8 | – | – | – | – | – | – | – | – | – | –
4 | C[C@H]1Cc2c([nH]c3cc(F)ccc23)[C@@]2(N1)C(=O)Nc1ccc(Cl)cc12 [(+)-5] | 4.3 ± 0.4 | 88 ± 26 | −2.99 | 25.70 | 0.05 | 38.1 | 131 (≈ 46.6 µg/mL) | 4.33 10-6 cm/sec | 98.5 | – | – | – | – | – | – | – | – | – | –
5 | C[C@H]1Cc2c([nH]c3cc(F)c(F)cc23)[C@@]2(N1)C(=O)Nc1ccc(Cl)cc12 [(+)-6] | 0.33 ± 0.06 | 7.5 ± 2.5 | −2.03 | 32.36 | 0.09 | 17.3 | 169 (≈ 63.2 µg/mL) | 5.55 10-6 cm/sec | 99.5 | – | – | – | – | – | – | – | – | – | –
6 | C[C@H]1Cc2c([nH]c3cc(Cl)c(F)cc23)[C@@]2(N1)C(=O)Nc1ccc(Cl)cc12 [(+)-7 (KAE609)] | – | – | −2.73 | 33.88 | 0.29 | 5.6 | – | – | – | 1 | 1.2 ± 0.2 | 123 nM and 48 ng/ml | 0.01 | 26 ± 14 | 61.6 | complete cure | 39 (≈ 15.2 µg/mL) | – | –
7 | C[C@@H]1Cc2c([nH]c3cc(F)c(F)cc23)[C@]2(N1)C(=O)Nc1ccc(Cl)cc12 [(−)-6] | 105 ± 20 | 2850 | – | – | – | – | 112 (≈ 41.9 µg/mL) | 4.8 10-6 cm/sec | 99.6 | – | – | – | – | – | – | – | – | submicromolar | no efficacy; also recorded: poor efficacy regardless of dose
8 | C[C@@H]1Cc2c([nH]c3cc(Cl)c(F)cc23)[C@]2(N1)C(=O)Nc1ccc(Cl)cc12 [(−)-7] | 210 ± 19 | 4910 | – | – | – | – | 35 (≈ 13.7 µg/mL) | 1.73 10-6 cm/sec | 99.4 | – | – | – | – | – | – | – | – | submicromolar | no efficacy; also recorded: poor efficacy regardless of dose
